Patent US20060057071A1, “Paramagnetic complexes with pendant crown compounds showing improved targeting-specificity as MRI contrast agents” (priority 2004, published 2006)
Where two headings read alike, the source gives them in different places.

Experiments:
[1] = 1H NMRD profiles (water proton relaxivity); assay type: physicochemical; conditions: for D / TR / TV / a / q / r / Δ^2: 25° C., pH 6.9, fits of NMRD profile and 17O NMR
Source text: (§1) Measuring the relaxation rates of an abundant nuclear species as a function of the magnetic field over a wide range is called relaxometry. A relaxometry profile is a plot of the nuclear magnetic relaxation rate, usually 1/T1, as a function of the Larmor frequency or the magnetic field. This profile is also called a Nuclear Magnetic Resonance Dispersion (NMRD) profile. Compared with the NMRD profile, the prominent advantage of the ^17O NMR technique is that it allows the accurate determination of the water exchange rate 1/TM. This is a consequence of the oxygen nucleus being closer to the paramagnetic centre when bound in the inner-sphere, wherein the outer-sphere contributions to the relaxation rates are negligibly small. With the help of NMRD profiles, ^17O NMR measurements, and the Soloman-Bloemnergen-Morgan theory, several important parameters, such as TM, TR, TV, Δ^2 and rH, can be measured.
Water proton nuclear magnetic resonance dispersion NMRD profile is used to record the longitudinal water proton relaxation rates as a function of magnetic fields. The method is, in principle, sensitive to all of the parameters that influence relaxivity. The ^1H NMRD profiles were measured over a continuum of magnetic field strength from 0.00024 to 0.24 T (corresponding to 0.01-10 MHz proton Larmor frequency, 1 T≈41.7 MHz) on a Spinmaster FFC (Stelar, Mede (PV)), which is a fast field-cycling NMR relaxometer installed at the LIMA Laboratory (Bioindustry Park, Ivrea (TO), Italy). The relaxometer worked under complete control with an absolute uncertainty in 1/T1 of ±2%. The NMRD profiles were measured using 1-2 mM solutions of the complexes.

[2] = Variable-temperature 17O NMR transverse relaxation rate; assay type: physicochemical; conditions: for water exchange rate kex^298 / TM: 25° C.; for TM: pH 6.9, derived from VT 17O NMR spectroscopy; for exchange lifetime TM of inner-sphere coordinated water: 298 K (25° C.), 2.12 T; for q, inner-sphere coordinated water molecules: from NMRD profile / 17O NMR data, near neutral pH
Source text: as §1
The variable-temperature ^17O NMR measurements were recorded on a JEOL EX-90 (2.1 T) spectrometer that was equipped with a 5 mm probe, by using a D2O external lock. The experimental settings were: spectral width of 10000 Hz, pulse width of 7 μs, acquisition time of 10 ms, 1000 scans, and no sample spinning. Solutions containing 2.6% of ^17O isotope were used. The observed transverse relaxation rates (R2obs^O) were calculated from the signal width at half height.

kidney cortex = test: In vivo MRI, renal intensity enhancement; set-up: species or system rat; conditions: for maximal renal intensity enhancement (IE): 0.1 mmol/kg (standard dosage), rat, first few minutes after administration
Method: (§2) To study the MRI contrast and biodistribution behavior of gadolinium complexes […] pendant crown ethers, experiments were performed using male Sprague-Dawley (SD) rats that weighted 150-180 g, and were housed at the Wuhan Institute of Physical and Mathematics of the Chinese Academy of Sciences (Wuhan, Hubei Province, China). All procedures conformed to the institutional guidelines for animal welfare. The rat was injected via the femoral vein with 1 mL saline solution of GdL1 in concentrations of 0.1, 0.033, and 0.02 mM/kg, which are the standard dosage, one third and one fifth of the standard dosage used in clinic currently. MR imaging was performed on a 4.7 T Bruker BIO-SPEC-47/30 MRI scanner with a custom spiral surface coil. The animal was scanned in the prone position in the MRI experiment. […] The total duration of the dynamic scanning lasted up to 400 min after the administration, with an image every 4 min. A water tube was placed in the field of view as a phantom reference. The intensity enhancement (IE) of the region of interest (RI) at time point t is expressed by IE=100% (RI(t)-RI(0))/RI(0) where RI(t) corresponds to the normalized signal intensity as measured at time point, t and RI(0) is the normalized signal intensity precontrast.

MIHA cells = test: AO/EB staining, laser scanning confocal microscopy; assay type: cell-based; conditions: 10 μM, 1 h, 2 h, 8 h, 24 h incubation, 37° C.
Method: MIHA cells in the absence (control) and presence of Gd-DOTA (10 μM), Gd-DO3A (10 μM), and GdL1 (10 μM) incubated at 37° C. and 5% CO2, 95% air in a humidified incubator for 1 h, 2 h, 8 h, and 24 h, respectively.
Based on cell morphology and cell membrane integrity, normal, necrotic, and apoptotic cells can be distinguished using laser confocal microscopy. FIG. 22 gives the cell morphology in the absence and presence of Gd-DOTA (10 μM), Gd-DO3A (10 μM), and GdL1 (10 μM) at various time intervals after the incubation. In the absence or presence of the Gd^3+ complexes, the nuclei of the living cells were stained as bright blue spots in the nucleus.

[3] = 1H NMRD profiles (water proton relaxivity); assay type: physicochemical; conditions: 20 MHz; for proton relaxivity r1 (r1p): 25° C., pH 6.9
[4] = 298 K; cited from earlier work
[5] = cited from earlier work
liver parenchyma = test: In vivo MRI, hepatic intensity enhancement; set-up: species or system rat; conditions: for maximal hepatic IE: 0.1 mmol/kg (standard dosage), rat
Method: as §2

[6] = Luminescence lifetime measurements for inner-sphere water molecules q (Tb complexes); assay type: physicochemical; conditions: for kH2O, absolute emission depopulation rate constant: in H2O; for kH2O, absolute emission depopulation rate constant / kH2O (Table 1), absolute emission depopulation rate constant / q, hydration state: pH 6.9 (0.1 M Tris/HCl), 298 K; for kH2O, absolute emission depopulation rate constant / kH2O (Table 1), absolute emission depopulation rate constant: ±10%; for kH2O (Table 1), absolute emission depopulation rate constant: title names H2O and D2O; for q, hydration state: q^Tb = 5 (1/τH2O - 1/τD2O-0.06); for inner-sphere coordinated (bound) water molecules: luminescent measurements, pH 6.9
Source text: As previously mentioned, inner-sphere proton relaxivity is linearly proportional to the number of water molecules q that are directly coordinated to the Gd^3+ center. However, there is a trade-off between the q value and toxicity. […] It is noteworthy that there is no direct method of measuring the hydration number. The two commonly used indirect methods are as follows: (1) Lanthanide-induced shift (LIS) methods (see, Alpoim et al., J. Chem. Soc., Dalton Trans., 1992, 463). For paramagnetic Ln^3+ ions, the plot of the observed ^17O shift in Ln^3+ chelate solution versus the complex concentration gives a straight line, with the slope being proportional to its hydration number. (2) The lanthanide luminescence method. According to the Horrocks equation, the q value can be calculated by the emission rate constants for the depopulation of Tb^3+ or Eu^3+ complexes measured in H2O and D2O (see, Beeby at al., J. Chem. Soc., Perkin Trans. 2, 1999, 493). With this method, the q values of the Gd^3+ complexes in aqueous solution can be measured indirectly by their corresponding Tb^3+ or Eu^3+ complexes, because of the very similar coordination behavior between these three lanthanide ions.
Luminescence lifetime measurements were all obtained on a Perkin-Elmer LS 50B spectrofluorimeter with a 420 nm cut-off filter. The concentration of the complex was 1×10^−5˜1×10^−4 mol dm^−3. The emission of Tb^3+ or Eu^3+ complexes was monitored at […]. Gd^3+ is a neighbor of Eu^3+ and Tb^3+ with a nearly identical ionic radius, and thus their chemistries are virtually identical. Therefore, the Horrocks equation for determining the number of coordinated water molecules q for Eu^3+ and Tb^3+ is still valid for the calculation of the q value of Gd^3+. In general, the number of coordinated water molecules q can be determined by the measurement of the luminescent lifetime of the complexes separately in H2O and D2O by application of the Horrocks equation. q′corr=A′(kH2O−kD2O−a) where k is the constant for depopulation (reciprocal of luminescent lifetime), and A is a proportionality constant that signifies the sensitivity of the lanthanide ion to vibronic quenching by OH oscillators. a is correlation value for the consideration of the outer-sphere water molecules.

SMILES	D [1]	TR [1]	TV [1]	a [1]	q [1]	r [1]	Δ^2 [1]	TM [2]	kH2O, absolute emission depopulation rate constant [6]	kH2O (Table 1), absolute emission depopulation rate constant [6]	q, hydration state [6]	further results
O=C([O-])CN1CCNCCN(CC(=O)[O-])CCN(CC(=O)[O-])CC1.[Gd+3] [Gd-DO3A, reference compound]	2.24E-5 cm^2s^−1	66 ps	14 ps	3.9 Å	2	3.15 Å	4.6e+19 s⁻¹	160 ns	–	–	–	water exchange rate kex^298 [2]: 6.3e+06 s⁻¹; exchange lifetime TM of inner-sphere coordinated water [2]: 160 ns; maximal renal intensity enhancement (IE) (kidney cortex): 140%; time after administration at which almost all renal IE was diminished (kidney cortex; 0.1 mmol/kg, kidney cortex): 120 min; cell morphology (apoptotic or necrotic cells) (MIHA cells): no obvious apoptotic or necrotic cells were found; proton relaxivity r1 (r1p) [3]: 5.72 mM⁻¹ s⁻¹; thermodynamic stability log K [4]: 22.0
O=C([O-])CN(CCN(CC(=O)[O-])CC(=O)O)CCN(CC(=O)[O-])CC(=O)O.[Gd+3] [Gd-DTPA, reference compound]	2.24E-5 cm^2s^−1	73 ps	20 ps	4.0 Å	1	3.1 Å	4.2e+19 s⁻¹	250 ns	–	–	–	r1p ([5]; 20 MHz, 298 K, typical values): 4.69 mM⁻¹ s⁻¹; bound water molecular resident lifetime TM ([5]; 298 K, typical values): ~303 ns
CC(O)CN1CCN(CC(=O)[O-])CCN(CC(=O)[O-])CCN(CC(=O)[O-])CC1.[Gd+3] (stereo not shown) [Gd-[HP-DO3A]]	–	–	–	–	–	–	–	–	–	–	–	relaxivity ([5]; 40° C., 20 MHz): 3.65 mM⁻¹ s⁻¹
O=C([O-])CN1CCN(CC(=O)[O-])CCN(C(CO)C(O)CO)CCN(CC(=O)[O-])CC1.[Gd+3] (stereo not shown) [Gd[DO3A-butrol]]	–	–	–	–	–	–	–	–	–	–	–	relaxivity ([5]; 37° C., 20 MHz): 5.6 mM⁻¹ s⁻¹
O=C([O-])CN1CCN(CCN2CCOCCOCCOCCOCC2)CCN(CC(=O)[O-])CCN(CC(=O)[O-])CC1.[Tb+3] [TbL1]	–	–	–	–	–	–	–	–	0.72 ms^−1	0.34 ms^−1	1.6	inner-sphere coordinated (bound) water molecules [6]: two

Further lines, with some results ahead:

D [1]	TR [1]	TV [1]	a [1]	q [1]	r [1]	Δ^2 [1]	TM [2]	kH2O, absolute emission depopulation rate constant [6]	kH2O (Table 1), absolute emission depopulation rate constant [6]	q, hydration state [6]	SMILES	further results
2.24E-5 cm^2s^−1	140 ps	13 ps	4.0 Å	2	2.97 Å	9e+19 s⁻¹	116 ns	–	–	–	O=C([O-])CN1CCN(CCOCC2COCCOCCOCCOCCO2)CCN(CC(=O)[O-])CCN(CC(=O)[O-])CC1.[Gd+3] (stereo not shown) [GdL2, Gd^3+ complex of L2]	water exchange rate kex^298 [2]: 8.62e+06 s⁻¹; exchange lifetime TM of inner-sphere coordinated water [2]: 116 ns; q, inner-sphere coordinated water molecules [2]: about 2; renal enhancement left in less than an hour (kidney cortex; 0.1 mmol/kg): 30%; maximal renal intensity enhancement (IE) (kidney cortex): 135%; hepatic IE level maintained for more than 4 h (liver parenchyma; 0.1 mmol/kg): > 60%; time after administration of maximal hepatic IE (liver parenchyma; 0.1 mmol/kg): 60 min; time for which strong/high hepatic IE was maintained (liver parenchyma; 0.1 mmol/kg): more than 4 h; maximal hepatic IE (liver parenchyma): 100%; proton relaxivity r1 (r1p) [3]: 9.36 mM⁻¹ s⁻¹; outer-sphere contribution to the overall observed proton relaxivity ([3]; pH 10.0): about 50%; outer-sphere relaxivity ([3]; pH 10.0): 2.1 mM⁻¹ s⁻¹; overall relaxivity ([3]; pH 10.0): 4.21 mM⁻¹ s⁻¹
2.24E-5 cm^2s^−1	210 ps	21 ps	4.2 Å	1	3.03 Å	3e+19 s⁻¹	246 ns	–	–	–	O=C([O-])CN1CCN(CC(=O)[O-])CCN(CC(=O)N2CCOCCOCCN(Cc3ccc4ccccc4n3)CCOCCOCC2)CCN(CC(=O)[O-])CC1.[Gd+3] [GdL3, Gd^3+ complex of L3]	reorientation lifetime TR [1]: 210 ps; exchange lifetime TM of inner-sphere coordinated water [2]: 246 ns; q, inner-sphere coordinated water molecules [2]: 1; maximal renal intensity enhancement (IE) (kidney cortex): 58%; hepatic IE level maintained for more than 4 h (liver parenchyma; 0.1 mmol/kg): about 50%; time for which strong/high hepatic IE was maintained (liver parenchyma; 0.1 mmol/kg): more than 4 h; maximal hepatic IE (liver parenchyma): 59%; relaxivity ([3]; pH 7.4): 4.95 mM⁻¹ s⁻¹
–	–	–	–	–	–	–	–	0.88 ms^−1	0.42 ms^−1	2.0	O=C([O-])CN1CCNCCN(CC(=O)[O-])CCN(CC(=O)[O-])CC1.[Tb+3] [Tb-DO3A, reference compound]	–
–	–	–	–	–	–	–	–	0.48 ms^−1	0.27 ms^−1	0.8	O=C([O-])CN1CCN(CC(=O)[O-])CCN(CC(=O)[O-])CCN(CC(=O)[O-])CC1.[Tb+3] [Tb-DOTA, reference compound]	–
–	–	–	–	–	–	–	–	0.74 ms^−1	0.35 ms^−1	1.7	O=C([O-])CN1CCN(CCOCC2COCCOCCOCCOCCO2)CCN(CC(=O)[O-])CCN(CC(=O)[O-])CC1.[Tb+3] (stereo not shown) [TbL2]	inner-sphere coordinated (bound) water molecules [6]: two
–	–	–	–	–	–	–	–	0.50 ms^−1	0.31 ms^−1	0.7	O=C([O-])CN1CCN(CC(=O)[O-])CCN(CC(=O)N2CCOCCOCCN(Cc3ccc4ccccc4n3)CCOCCOCC2)CCN(CC(=O)[O-])CC1.[Tb+3] [TbL3]	inner-sphere coordinated (bound) water molecules [6]: one
